Measured values taken from patent US20050196343A1, “Degradable nanoparticles” (Molecular Therapeutics, Inc., priority 2004, published 2005).

Tested on: intracerebral 9L gliomas
Assay: In vivo therapy of glioma using Photofrin-containing nanoparticles with laser (diffusion MRI, Kaplan-Meier survival)
Design: species or system rat
Settings: 9L tumor rats, tail vein administration, FIG. 17
Description: Rats harboring intracerebral 9L gliomas, were allowed to grow to approximately 50 microliters in size, as quantitated using multi-slice T2-weighted MRI. Rats were divided into the following groups: sham (untreated); laser exposure only; intravenous administered photofrin (no nanoparticles); photofrin-encapsulated nanoparticles; and photofrin-encapsulated nanoparticles with F3 targeting (n=5/group). Diffusion MRI scans were obtained prior to treatment and every 2-3 days following treatment. Treatment with laser administration consisted of 750 mW of laser light administered at 630 nm for 7.5 minutes of total exposure time. This was accomplished through the same 1 mm diameter burr hole which was initially made to inject the 9L tumor cells to initiate tumor growth. The depth of the cylindrical laser tip was adjusted, based upon the MRI scan data, to be at the base of the tumor mass in order to optimize light delivery to the overall tumor mass. Diffusion MRI scans were acquired in order to assess in real time, the effectiveness of treatment. Increased diffusion values within the tumor mass reflect areas of cell kill (necrosis) and the magnitude of the increase is proportional to the level of cell killing. As shown in the MRI scans in FIG. 15, control diffusion tumor values are on average at approximately 100 apparent diffusion coefficient units (ADC).

Substance: Photofrin
- survival times (Kaplan-Meier): no significant differences in survival times
